From patent publication EP4796540A2, “N-SULFONAMIDE NITROGEN-CONTAINING FUSED HETEROCYCLIC COMPOUND, AND APPLICATION THEREOF” (priority 2023, dated 2025)
Where two headings read alike, the source gives them in different places.

Assays:
p53 Y220C mutant = assay: HTRF assay: compounds promoting the binding of p53 Y220C mutant with DNA; assay type: biochemical; details: His-tagged p53 Y220C (94-312), biotin-labeled DNA
Protocol: Homogeneous time-resolved fluorescence (HTRF) assay was used to measure the reactivation effect of compounds on the p53 Y220C mutant. The recombinant His-tagged p53 Y220C (94-312) used for HTRF assays was expressed in E. coli and purified to the purity of 90% through Ni-NTA column. The biotin-labeled DNA used for HTRF assays was synthesized by Pharmaron Inc, with the specific sequence of 5'-[…]-3' .
The binding of recombinant His-tagged p53 Y220C protein and biotin-labeled DNA was measured using fluorescence resonance energy transfer (FRET). For FRET assays, binding between p53 mutants and DNA sequences was measured by detecting the fluorescence of the interaction between an anti-His antibody (Cisbio, 61HI2KLA) conjugated to Eu and d2-conjugated streptavidin (Cisbio, 610SADLF) bound to a biotin-labeled DNA molecule. Compounds were prepared into 2 mM stock solutions and serially diluted into 10 concentrations at a 1:3 ratio in DMSO. Each 200-fold working concentration compound was sequentially diluted to 4-fold working concentration. 4 µL of compound solution was transferred line by line to a 384-well assay plate using Echo, containing 2 replicates per column. 4 µL of p53 solution was added to the assay plate. 4 µL of biotin DNA solution was added to the assay plate, and then 4 µL of assay solution (His-Eu antibody and streptavidin-d2) was added to each well of the assay plate. The assay plate was incubated overnight and protected from light. Fluorescence was read on BMG (BMG LRBTECH).
The ratio of each well was calculated (ratio_665 nm/615 nm-ratio_background). The activity % was calculated as follows: C = (Ave_Ac−Ave_Ba)/(Ave_Dc_Ave_Bd) [formula] R data = (A−Ave_Ba−C*D)/(D−Ave_Bd)*(Ave_Dc−Ave_Bd) [formula] Activity % = R data/Ave_VC*100. [formula] • A: fluorescence intensity of the sample at 665 nm; • D: fluorescence intensity of the sample at 615 nm; • Ba: fluorescence intensity of the plate background at 665 nm; • Bd: fluorescence intensity of the plate background at 615 nm; • Dc: fluorescence intensity of HIS-Eu background at 615 nm; • Ac: fluorescence intensity of streptavidin-d2 background at 665 nm; • VC: DMSO treatment group.
SC150 was calculated using Graphpad 8.0 to fit the logarithm of activity% and compound concentration to a nonlinear regression (dose response-variable slope). Table 1: Activity of compounds promoting the binding of p53 Y220C mutant with DNA

CYP3A4/5 [1] = details: human, microsomes, 10 min, 10 µM
Protocol: (§1) Experimental purpose: To test the inhibitory effect of compounds on CYP isoenzymes at a single concentration. • 2. Experimental instrument and reagents:
(§2) 8.71 g of K2HPO4 was dissolved in 950 mL of water. The pH was adjusted to 7.4 with HCl solution. The mixture was adjusted to a final volume of 1000 mL with water. The buffer was filtered through a 0.45 µm filter. The buffer was stored in a refrigerator at 4°C for future use. Terfenadine/tolbutamide (1 mg/mL each) stock solutions were prepared with DMSO. The above stock solution was diluted with acetonitrile to produce a quenching solution containing 5/10 ng/mL (terfenadine/tolbutamide).
(§3) Liver microsomes were thawed in a 37°C water bath prior to use. Liver microsome working solution (final concentration of 0.5 mg/mL) was prepared. 5 mM NADPH working solution was prepared with phosphate buffered saline. The above stock solution was prepared into a 2 mM working solution with DMSO.
(§4) 238.5 µL of liver microsome working solution was added to a 1.1 mL tube. 1.5 µL of test compound/control working solution/DMSO was added and mixed well by pipetting several times. The mixture was pre-incubated in water bath with shaking at 37°C for 5 minutes. After the pre-incubation, 60 µL of NADPH working solution was added and mixed well by pipetting several times. The mixture was incubated in water bath with shaking at 37°C for 10 minutes. Immediately after incubation, 500 µL of quenching solution was added and vortexed for 1 minute. All samples were centrifuged at 4,000 rpm for 15 minutes at 4°C. 300 µL of the above supernatants were aliquoted for further LC-MS/MS analysis.
(§5) Inhibition rate (% inhibition) is calculated using metabolite formation of the test compound or the control compound compared to the matrix control.

CYP3A4/5 enzymes = assay: Multi-concentration inhibitory activity curve of CYP3A4/5 enzymes, liver microsomes; assay type: in vitro ADME; details: substrate Midazolam; human liver microsomes; 10 min
Protocol: Experimental purpose: To determine the concentration inhibitory activity curve of compounds on CYP3A4/5 enzymes. • 2.
as §2
Liver microsomes were thawed in a 37°C water bath prior to use. Liver microsome working solution (final system concentration of 0.5 mg/mL) was prepared. 5 mM NADPH working solution was prepared with phosphate buffered saline. The above stock solution was prepared into a 2 mM working solution with DMSO. The above stock solution was diluted with acetonitrile (4-fold dilution, 6 non-zero concentrations).
238.5 µL of liver microsome working solution was added to a 1.1 mL tube. 1.5 µL of test compound/control working solution/DMSO was added and mixed well by pipetting several times. The mixture was pre-incubated in water bath with shaking at 37°C for 5 minutes. […]
The half-maximal inhibitory concentration (IC50) was calculated using Graph Pad Prism.

CYP3A4/5 [2] = assay: Inhibition of CYP isoenzymes at a single concentration, liver microsomes; details: final compound concentration 10 µM; substrate Midazolam; human liver microsomes
Protocol: as §1, §2, §3, §4, §5

Row | SMILES | SC150 (p53 Y220C mutant) | also measured
1 | [2H]C([2H])([2H])Oc1nc(C(=O)NS(=O)(=O)CC(F)(F)F)ccc1NCC#Cc1cc2c(N[C@@H]3CCN(C)C[C@@H]3F)cccn2c1CC(F)(F)F [Cpd-6, 5-((3-(8-(((3S,4R)-3-Fluoro-1-methylpiperidin-4-yl)amino)-3-(2,2,2-trifluoroethyl)indolizin-2-yl)prop-2-yn-1-yl)amino)-6-(methoxy-d3)-N-((2,2,2-trifluoroethyl)sulfonyl)picolinamide] | 1.7 nM | –
2 | [2H]C([2H])([2H])Oc1nc(C(=O)NS(=O)(=O)CC2CC2)ccc1NCC#Cc1cc2c(N[C@@H]3CCN(C)C[C@@H]3F)cccn2c1CC(F)(F)F [Cpd-5, N-((Cyclopropylmethyl)sulfonyl)-5-((3-(8-(((3S,4R)-3-fluoro-1-methylpiperidin-4-yl)amino)-3-(2,2,2-trifluoroethyl)indolizin-2-yl)prop-2-yn-1-yl)amino)-6-(methoxy-d3)picolinamide] | 1.1 nM | –
3 | COc1cc(S(C)(=O)=O)ccc1NCC#Cc1nc2c(N[C@@H]3CCN(C)C[C@@H]3F)cccn2c1CC(F)(F)F [Cpd-B] | 15 nM | Inhibition rate (%) CYP3A4/5 (Midazolam) (CYP3A4/5 [1]): 61%; Inhibition rate (%) CYP3A4/5 (Testosterone) (CYP3A4/5 [1]): 75%
4 | CNC(=O)c1ccc(NCC#Cc2cc3c(N[C@@H]4CCN(C)C[C@@H]4F)cccn3c2CC(F)(F)F)c(OC)c1 [Cpd-C, 4-((3-(8-(((3S,4R)-3-Fluoro-1-methylpiperidin-4-yl)amino)-3-(2,2,2-trifluoroethyl)indolizin-2-yl)prop-2-yn-1-yl)amino)-3-methoxy-N-methylbenzamide] | 4.6 nM | IC50 (CYP3A4/5 enzymes): 3.8 µM; Inhibition rate (%) CYP3A4/5 (Midazolam) (CYP3A4/5 [2]): 79%
5 | COc1nc(C(=O)NS(C)(=O)=O)ccc1NCC#Cc1cc2c(N[C@@H]3CCN(C)C[C@@H]3F)cccn2c1CC(F)(F)F [Cpd-1, 5-((3-(8-(((3S,4R)-3-Fluoro-1-methylpiperidin-4-yl)amino)-3-(2,2,2-trifluoroethyl)indolizin-2-yl)prop-2-yn-1-yl)amino)-6-methoxy-N-(methylsulfonyl)picolinamide] | 1.0 nM | –
6 | COc1nc(C(=O)NS(=O)(=O)C2CC2)ccc1NCC#Cc1cc2c(N[C@@H]3CCN(C)C[C@@H]3F)cccn2c1CC(F)(F)F [Cpd-7, N-(Cyclopropylsulfonyl)-5-((3-(8-(((3S,4R)-3-fluoro-1-methylpiperidin-4-yl)amino)-3-(2,2,2-trifluoroethyl)indolizin-2-yl)prop-2-yn-1-yl)amino)-6-methoxypicolinamide] | 0.64 nM | –
7 | [2H]C([2H])([2H])Oc1nc(C(=O)NS(=O)(=O)C2CC2)ccc1NCC#Cc1cc2c(N[C@@H]3CCN(C)C[C@@H]3F)cccn2c1CC(F)(F)F [Cpd-4, N-(Cyclopropylsulfonyl)-5-((3-(8-(((3S,4R)-3-fluoro-1-methylpiperidin-4-yl)amino)-3-(2,2,2-trifluoroethyl)indolizin-2-yl)prop-2-yn-1-yl)amino)-6-(methoxy-d3)picolinamide] | 0.35 nM | –
8 | COc1nc(C(=O)NS(C)(=O)=O)ncc1NCC#Cc1cc2c(N[C@@H]3CCN(C)C[C@@H]3F)cccn2c1CC(F)(F)F [Cpd-3, 5-((3-(8-(((3S,4R)-3-Fluoro-1-methylpiperidin-4-yl)amino)-3-(2,2,2-trifluoroethyl)indolizin-2-yl)prop-2-yn-1-yl)amino)-4-methoxy-N-(methylsulfonyl)pyrimidine-2-carboxamide] | 0.74 nM | –
